Measured values published in PMC11555717 (Cancer Medicine, 2024).
“Also recorded” adds a separate entry of the source. Marks after values point to notes of the source that are not given here.

Key:
[1] = EV-203 immunogenicity: antitherapeutic antibodies (ATAs) against enfortumab vedotin; assay type: in vivo, human; conditions: 38 participants tested
Experimental: In the PK cohort (i.e., PK analysis set), intensive PK sampling was performed wherein blood samples for analysis of ADC, total antibody (TAb), and free (unconjugated) MMAE were collected at prespecified time points. […] Blood samples for antitherapeutic antibodies (ATAs) were collected predose on Day 1 of cycles 1 to 4, 6, 8, 10, and within 30–37 days after the last study dose. Validated assays were used to measure concentrations of ADC, TAb, and free MMAE in serum or plasma and to assess ATA levels.
Secondary endpoints were confirmed ORR by investigator assessment; DOR, disease control rate (DCR), and progression‐free survival (PFS) by IRC and investigator assessments; OS; incidence of ATAs to ADC; and safety/tolerability. PFS was defined as the time from the start of the study treatment to the first documentation of objective tumor progression (i.e., progressive disease per RECIST version 1.1) by IRC or investigator assessment (whichever was specified) or to death due to any cause, whichever came first. OS was defined as the time from the start of study treatment to the date of death due to any cause. […] Data for treatment‐related AEs (TRAEs) were evaluated by the investigator.

[2] = system: Chinese patients with previously treated locally advanced or metastatic urothelial carcinoma; test: EV-203 phase 2: antitumor activity per RECIST v1.1 (IRC and investigator), PFS, OS; assay type: in vivo, human; conditions: for Confirmed disease control rate (95% CI): CR, PR or stable disease; for Duration of response, median (95% CI): NE = not evaluable; for Confirmed best overall response: Stable disease: minimum duration 49 days; for Confirmed objective response rate (95% CI): RECIST v1.1, 1.25 mg/kg
Source text: This was a single‐arm, open‐label phase 2 study that enrolled patients from six centers in China. Up to 40 patients were planned for enrollment. Two of the study centers were designated as PK cohort sites and planned to enroll 12 or more patients who agreed to intensive PK sampling for PK analysis in addition to safety and efficacy assessments.
The study enrolled Chinese adults (age ≥ 18 years or considered an adult per local regulations) with histologically or cytologically confirmed UC/transitional cell carcinoma of the bladder, renal pelvis, ureter, or urethra not amenable to curative intent treatment. Patients with other histologies, including adenocarcinoma, squamous differentiation, or mixed, were also eligible. Patients must have received prior treatment with platinum‐based chemotherapy and PD‐1/L1 inhibitor therapy in the locally advanced or metastatic setting or in the neoadjuvant or adjuvant setting with recurrence or progressive disease during therapy or within 12 months (platinum‐based chemotherapy) or 3 months (PD‐1/L1 inhibitor) of completion of treatment; had baseline measurable disease according to Response Evaluation Criteria in Solid Tumors (RECIST) version 1.1; and an Eastern Cooperative Oncology Group performance status (ECOG PS) of 0–1. Key exclusion criteria were preexisting grade 2 or higher sensory/motor neuropathy; active central nervous system metastases; clinically significant toxicity associated with prior treatment; ongoing grade 3 or higher immunotherapy‐related hypothyroidism or panhypopituitarism, ongoing immunotherapy‐related colitis, uveitis, myocarditis, or pneumonitis; other immunotherapy‐related adverse events (AEs) requiring high‐dose steroids (prednisone > 20 mg/day or equivalent); or history of uncontrolled diabetes mellitus (glycated hemoglobin ≥ 8% or between 7% and < 8% with diabetes‐related symptoms not otherwise explained) within 3 months prior to the first study dose.
Study treatment continued until one or more of the following occurred: patient or investigator decision; documented radiologic disease progression per RECIST version 1.1 by investigator assessment; start of new anticancer therapy; unacceptable toxicity; pregnancy; protocol noncompliance; or more than six consecutive doses of study treatment missed by the patient. Prespecified dose modifications were permitted depending on AE type and severity.
Antitumor activity was assessed every 8 weeks (±1 week) via computed tomography with contrast. After 1 year of study, imaging frequency was reduced to every 12 weeks (±1 week). Complete response (CR) and partial response (PR; per RECIST version 1.1) were confirmed by repeat scans conducted at least 4 weeks after the initial response. Responses were assessed by investigators and an independent review committee (IRC). Tumor assessments were continued until the study end or the first occurrence of radiologic disease progression per RECIST version 1.1, as determined by investigator assessment, the patient initiated new anticancer therapy, or the patient died, withdrew study consent, or was lost to follow‐up.
The primary efficacy endpoint was confirmed ORR as assessed by IRC. The ORR was defined as the proportion of patients with CR or PR according to RECIST version 1.1. […] Other primary endpoints included selected PK parameters of ADC, TAb, and free MMAE.
Secondary endpoints were confirmed ORR by investigator assessment; DOR, disease control rate (DCR), and progression‐free survival (PFS) by IRC and investigator assessments; OS; incidence of ATAs to ADC; and safety/tolerability. PFS was defined as the time from the start of the study treatment to the first documentation of objective tumor progression (i.e., progressive disease per RECIST version 1.1) by IRC or investigator assessment (whichever was specified) or to death due to any cause, whichever came first. OS was defined as the time from the start of study treatment to the date of death due to any cause. […]

enfortumab vedotin: fully human monoclonal ADC directed to Nectin-4, delivering intracellular monomethyl auristatin E (MMAE) to tumor cells
Incidence of positive ATAs postbaseline [1]: 0% | Median time to response ([2]; IRC assessment): 1.8 (range, 1.7–3.8) months | Median PFS ([2]; IRC assessment, N = 40): 4.7 months | Best overall response PR, patients ([2]; IRC, 14 patients): 35.0% | Patients with reductions of 30% or more from baseline in target lesions ([2]; IRC, 24 of 37 patients): 64.9% | Patients with reduction in sum of diameters of target lesions from baseline ([2]; IRC, 33 of 37 patients with baseline and postbaseline assessments): 89.2% | Confirmed disease control rate (95% CI) ([2]; IRC, N = 40): 72.5 (56.1–85.4) % | Rate of duration of response (95% CI) at 6 months ([2]; IRC, Kaplan–Meier): 59.7 (22.2–83.8) % | Duration of response, median (95% CI) ([2]; IRC, Kaplan–Meier): not reached; also recorded: NE (2.04–NE) | Confirmed best overall response: CR ([2]; IRC, N = 40): 1 (2.5) n (%) | Confirmed best overall response: NE (not evaluable) ([2]; IRC, N = 40): 4 (10.0) n (%) | Confirmed best overall response: PR ([2]; IRC, N = 40): 14 (35.0) n (%) | Confirmed best overall response: Progressive disease ([2]; IRC, N = 40): 7 (17.5) n (%) | Confirmed best overall response: Stable disease ([2]; IRC, N = 40): 14 (35.0) n (%) | Confirmed objective response rate (95% CI) ([2]; IRC, N = 40): 37.5 (22.7–54.2) ^b % | ORR, subgroup patients with liver metastases ([2]; IRC, n/N = 5/11): 45.5% | ORR, subgroup three or more lines of systemic therapy ([2]; IRC, n/N = 6/18): 33.3% | ORR, subgroup baseline ECOG PS of 0 ([2]; IRC, n/N = 7/10): 70.0% | ORR, subgroup primary tumor site bladder or other ([2]; IRC, n/N = 7/11): 63.6% | ORR, subgroup primary tumor site upper tract ([2]; IRC, n/N = 8/29): 27.6% | ORR, subgroup baseline ECOG PS of 1 ([2]; IRC, n/N = 8/30): 26.7% | Best overall response CR, patients ([2]; IRC, one patient): 2.5% | Confirmed disease control rate (95% CI) ([2]; Investigator, N = 40): 82.5 (67.2–92.7) % | Rate of duration of response (95% CI) at 6 months ([2]; Investigator, Kaplan–Meier): 61.1 (26.2–83.4) % | Duration of response, median (95% CI) ([2]; Investigator, Kaplan–Meier): not reached; also recorded: NE (2.04–NE) | Confirmed best overall response: CR ([2]; Investigator, N = 40): 0 n (%) | Confirmed best overall response: NE (not evaluable) ([2]; Investigator, N = 40): 3 (7.5) n (%) | Confirmed best overall response: PR ([2]; Investigator, N = 40): 17 (42.5) n (%) | Confirmed best overall response: Progressive disease ([2]; Investigator, N = 40): 4 (10.0) n (%) | Confirmed best overall response: Stable disease ([2]; Investigator, N = 40): 16 (40.0) n (%) | Confirmed objective response rate (95% CI) ([2]; Investigator, N = 40): 42.5 (27.0–59.1) % | Overall survival at 6 months (95% CI) ([2]; Kaplan–Meier, N = 40): 78.0 (60.1–88.6) % | Median PFS ([2]; investigator assessment, N = 40): 4.2 months | Median OS ([2]; median follow-up 6.5 months): not reached (lower bound of 95% CI: 6.74)
